Tests used:
[1] = tested on: Boophilus microplus; experiment: Boophilus microplus test (BOOPMI injection); assay type: in vivo; conditions: 20 μg/animal, after 7 days
Description: Boophilus microplus Test (BOOPMI Injection) [table] To produce a suitable active compound formulation, 10 mg of active compound are mixed with 0.5 ml of solvent and the concentrate is diluted with solvent to the desired concentration. The active compound solution is injected into the abdomen (Boophilus microplus), and the animals are transferred into dishes and stored in a climate-controlled room. After 7 days, the efficacy in % is determined. The activity is assessed by laying of fertile eggs. 100% means that none of the ticks has laid any fertile eggs.

[2] = tested on: Ctenocephalides felis; experiment: Ctenocephalides felis; oral (CTECFE); assay type: in vivo; conditions: 100 ppm, oral in cattle blood, after 2 days
Description: Ctenocephalides felis; Oral (CTECFE)
To produce a suitable active compound formulation, 10 mg of active compound are mixed with 0.5 ml of dimethyl sulphoxide. A portion of the concentrate is diluted with citrated cattle blood, and the desired concentration is prepared.
About 20 unfed adult fleas (Ctenocephalides felis) are placed into a chamber which is closed at the top and bottom with gauze. A metal cylinder whose bottom end is closed with parafilm is placed onto the chamber. The cylinder contains the blood/active compound preparation, which can be imbibed by the fleas through the parafilm membrane.
After 2 days, the kill in % is determined 100% means that all fleas have been killed; 0% means that none of the fleas have been killed.

[3] = tested on: Lucilia cuprina larvae; experiment: Lucilia cuprina test (LUCICU); assay type: in vivo; conditions: 100 ppm, after 2 days
Description: (§1) Lucilia cuprina Test (LUCICU) [table] To produce a suitable active compound formulation, 10 mg of active compound are mixed with 0.5 ml of dimethyl sulfoxide, and the concentrate is diluted with water to the desired concentration. Vessels containing horse meat treated with the active compound formulation of the desired concentration are populated with about 20 Lucilia cuprina larvae. After 2 days, the kill in % is determined 100% means that all the larvae have been killed; 0% means that none of the larvae have been killed.

[4] = tested on: adult Musca domestica; experiment: Musca domestica test (MUSCDO); assay type: in vivo; conditions: 100 ppm, after 2 days
Description: as §1, with “Musca domestica” for “Lucilia cuprina”, “(MUSCDO)” for “(LUCICU)”, “a sponge” for “horse meat”, “adult Musca domestica.” for “about 20 Lucilia cuprina larvae.”, “flies” for “the larvae”, “no flies” for “none of the larvae”

[5] = tested on: green peach aphid (Myzus persicae); experiment: Myzus persicae spray test (MYZUPE); assay type: in vivo; conditions: 100 g/ha, after 6 days
Description: Myzus persicae-Spray Test (MYZUPE) [table] To produce a suitable active compound formulation, 1 part by weight of active compound is mixed with the stated amounts of solvent and emulsifier, and the concentrate is diluted with emulsifier-containing water to the desired concentration. Discs of Chinese cabbage leaves (Brassica pekinensis) infested by all stages of the green peach aphid (Myzus persicae) are sprayed with an active compound formulation of the desired concentration. After 6 days, the efficacy in % is determined 100% means that all the aphids have been killed; 0% means that none of the aphids have been killed.

[6] = tested on: larvae of the mustard beetle (Phaedon cochleariae); experiment: Phaedon cochleariae spray test (PHAECO); assay type: in vivo; conditions: 100 g/ha, spray, after 7 days
Procedure, shortened: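 Chinese cabbage (Brassica pekinensis) leaf discs sprayed with compound in emulsifier-containing water at the desired concentration, dried, then infested with larvae. Efficacy scored after 7 days as % larvae killed (100% = all dead, 0% = none).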

[7] = tested on: caterpillars of the armyworm (Spodoptera frugiperda); experiment: Spodoptera frugiperda spray test (SPODFR); assay type: in vivo; conditions: 100 g/ha, spray, after 7 days
Description: Spodoptera frugiperda—Spray Test (SPODFR)
(§2) To produce a suitable active compound formulation, 1 part by weight of active compound is mixed with the stated amounts of solvent and emulsifier, and the concentrate is diluted with emulsifier-containing water to the desired concentration.
Leaf discs of maize (Zea mays) are sprayed with an active compound formulation of the desired concentration and, after drying, populated with caterpillars of the armyworm (Spodoptera frugiperda).
After 7 days, the efficacy in % is determined. 100% means that all the caterpillars have been killed; 0% means that no caterpillars have been killed.
To produce a suitable preparation of active compound, 1 part by weight of active compound is mixed with the stated amounts of solvent and emulsifier, and the concentrate is diluted with emulsifier-containing water to the desired concentration.
Leaf discs of maize (Zea mays) are sprayed with an active compound preparation of the desired concentration and, after drying, populated with caterpillars of the armyworm (Spodoptera frugiperda).
After the stated period of time, the effect in % is determined. 100% means that all the caterpillars have been killed; 0% means that no caterpillars have been killed.

[8] = tested on: greenhouse red spider mite (Tetranychus urticae); experiment: Tetranychus urticae spray test, OP-resistant (TETRUR); assay type: in vivo; conditions: 100 g/ha, spray, after 6 days
Description: as §2
Discs of bean leaves (Phaseolus vulgaris) infested by all stages of the greenhouse red spider mite (Tetranychus urticae) are sprayed with an active compound formulation of the desired concentration.
After 6 days, the efficacy in % is determined 100% means that all the spider mites have been killed; 0% means that none of the spider mites have been killed. […]

[9] = log P by HPLC on reversed-phase column (C18), EEC directive 79/831 Annex V.A8; assay type: physicochemical; conditions: HPLC, acidic range pH 2.7, 43° C.
Procedure, shortened: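 log P determined per EEC directive 79/831 Annex V.A8 by reversed-phase C18 HPLC at 43 °C, calibrated with unbranched alkan-2-ones (C3–C16) of known log P. Acidic-range determination at pH 2.7 with 0.1% formic acid acetonitrile/water, linear 10–95% acetonitrile gradient.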

Structure (SMILES): CCn1c(C(=O)NC(c2ccc(F)c(Cl)c2)C(F)(F)F)cc2cc(C(=O)NC3(C#N)CC3)c(C)nc21 (stereo not drawn) [Compound 10]
- efficacy (laying of fertile eggs) [1]: 100%
- efficacy (kill) [2]: 100%
- efficacy (kill) [3]: 100%
- efficacy (kill) [4]: 100%
- efficacy [5]: 90%
- efficacy [6]: 100%
- efficacy [7]: 100%
- efficacy [8]: 100%
- log p [9]: 3.51

Structure (SMILES): CCn1c(C(=O)NC(c2ccc(F)c(Cl)c2)C(F)(F)F)cc2cc(C(=O)NC3(C#N)CC3)c(Cl)nc21 (stereo not drawn) [Compound 26]
- efficacy (laying of fertile eggs) [1]: 100%
- efficacy (kill) [2]: 100%
- efficacy (kill) [3]: 100%
- efficacy (kill) [4]: 100%
- efficacy [5]: 100%
- efficacy [6]: 100%
- efficacy [7]: 100%
- efficacy [8]: 100%
- log p [9]: 3.62

Structure (SMILES): CCn1c(C(=O)NC(c2cccc(C(F)(F)F)c2)C(F)(F)F)cc2cc(C(=O)NC3(C#N)CC3)c(Cl)nc21 (stereo not drawn) [Compound 11]
- efficacy (laying of fertile eggs) [1]: 100%
- efficacy (kill) [2]: 100%
- efficacy (kill) [3]: 100%
- efficacy (kill) [4]: 100%
- efficacy [5]: 100%
- efficacy [6]: 100%
- efficacy [7]: 100%
- efficacy [8]: 100%
- log p [9]: 3.68

Source: patent US9345247B2, “Azaindole carboxylic acid amides and azaindole thiocarboxylic acid amides for use as insecticides and acaricides” (BAYER CROPSCIENCE AG, priority 2012, dated 2016)
